Assay results: US20130039887A1, “Methods of Identifying and Using Anti-Viral Compounds” (KINETA, INC., priority 2010, published 2013)

Columns and labels:
Huh7, MRC5 and 293 cells = assay: MTS cytotoxicity assay in multiple cell types (Huh7, MRC5, 293); type: cell-based, human
Description: All lead molecules chosen for further development mediate IRF-3 nuclear translocation and have antiviral activity against HCV. All induce dose-dependent activation of ISG expression in the absence of nonspecific promoter (β-actin) induction. To analyze in vitro cytotoxicity of lead agonist molecules, an MTS assay was conducted using multiple cell types (Huh7, human liver; MRC5, lung fibroblast; and 293, […]).

ISG54 promoter = assay: ISG54-luciferase reporter assay in Huh7-ISG54-Luc cells; type: cell-based, human; conditions: dose response (5-50 μM), 24 h
actin promoter = assay: Actin promoter control cell line counter screen (β-actin-LUC); type: cell-based, human
[1] = tested on: Influenza A virus WSN strain (A/WSN/33); assay: Influenza A virus nucleoprotein ELISA / Western blot assay; type: cell-based; conditions: ELISA and Western blot
HCV2a virus = assay: HCV immunofluorescence antiviral / focus-forming assay in Huh7 cells; type: cell-based, Hepatitis C virus; conditions: Huh7 cells pre-treated 24 h (compounds 10 μM), HCV2a MOI 0.1-0.5
Description: HCV immunofluorescence antiviral assay: Huh7 cells are seeded on a 96-well plate at a density of 5×10^3 cells per well and grown for 24 hours. Compounds that have been diluted to 10 μM in media and contain a final concentration of 0.5% DMSO are added to each well and grown another 24 hours. The compound media solution is removed from the plate and stored in a clean tissue culture dish. Cell monolayers are washed with PBS and HCV2a virus is added at the stated MOI. Virus is incubated for 2-4 hours and then removed, the monolayers are washed with PBS and the compound solutions are replaced into each well.
The cells are grown overnight and then cells are fixed and stained for HCV proteins. All buffers and reagents used are from the Cellomics staining kits described above. HCV specific antibodies from either commercial sources or primary patient serum can be used to detect HCV infected cells in culture. […] The number of infected cells is counted and representative images are saved. […]
To measure levels of HCV infection with or without drug treatment the cells were stained for HCV specific staining using serum and a FITC conjugated fluorescent secondary antibody. […] Using an inverted fluorescent microscope the number of infected cells is quantitated (shown—FIG. 9 bottom panel). […]

| Compound | cytotoxicity (MTS assay) (Huh7, MRC5 and 293 cells) | induction of the ISG54-luciferase reporter (ISG54 promoter) | nonspecific promoter induction (β-actin-LUC) (actin promoter) | anti-influenza activity (viral nucleoprotein levels) [1] | HCV infection (infected cells stained for HCV proteins, IF assay) (HCV2a virus) |
| --- | --- | --- | --- | --- | --- |
| NS(=O)(=O)c1ccc(-c2ccc(/C=C3/SC(=S)N(Cc4ccco4)C3=O)o2)cc1 [KIN300] | absence of cytotoxicity | dose-dependent induction | absence of nonspecific promoter induction | efficient, dose-dependent anti-influenza activity | – |
| N#Cc1c(-c2ccccc2)cc(-c2ccccc2)nc1SCC(=O)N1CCOCC1 [KIN400] | – | – | – | efficient, dose-dependent anti-influenza activity | – |
| COc1ccc(NC(=O)Cn2c(=O)n(Cc3ccco3)c(=O)c3oc4ccccc4c32)c(OC)c1 [KIN500] | – | – | – | efficient, dose-dependent anti-influenza activity | – |
| Interferon | – | – | – | – | completely blocks HCV infection |
